Data on 10 compounds can be found in patent publication US5709816A, “Singlet oxygen quenchers and external compositions containing the same” (Kao Corporation, priority 1899, dated 1998).

Experiment [1] deals with sunburn cells in skin of ICR/HR mice. Nature of the experiment: Inhibition of sunburn cell formation (UV-B irradiation). It counts as in vivo. To be noted: Mus musculus, light or radiation study, topical; 1 wt. % in ethanol; UV-B 100 mJ/cm^2; 24 hours later; read-out: Inhibition ratio regarding sunburn cell formation. From the text: Inhibition of sunburn cell formation
Ethanol solution of a test substance (1 wt. %) was applied onto the skin of ICR/HR mice. UV-B (100 mJ/cm^2) was irradiated onto the skin (health lamp SE20/SLE, Toshiba). Twenty-four hours later, the skin was biopsied and stained using hematoxylin & eosin, after which the number of sunburn cells were counted under microscope.

Experiment [2] has as its system skin of colored guinea pigs. The experiment is described as follows: Inhibition of delayed darkening (UV-A/UV-B irradiation). It counts as in vivo. The note with it: 7 wt. % in ethanol; UV-A/UV-B 50 J/cm^2; 14 days after irradiation; color difference meter. The method, then: Inhibition of delayed darkening
The hair of colored guinea pigs (8 week old, female) hair was removed, and an ethanol solution containing a test substance (7 wt. %) was applied to the skin. A mixture of UV- A/UV-B rays (50 J/cm^2, measured at 365 nm using a UV-radiometer UVR-305/365-D, Torex Co.) was irradiated onto the back of each guinea pig using a solar simulator. Fourteen days after irradiation, delayed darkening inhibition ratios were measured using a color difference meter (Model 1001P. Nippon Kogyo Co., Ltd.).

A further experiment concerns skin of ICR/HR mice. The experiment is described as follows: Inhibition of wrinkle formation in the skin of mice (UV-B, 16 weeks). It counts as in vivo, ICR/HR mouse. To be noted: Mus musculus, topical, 2688 h; 1 wt. % in ethanol; 1 MED UV-B five times per week over sixteen weeks. The text has this:
Inhibition of wrinkle formation in the skin of mice
To the back of each ICR/HR mouse (female, 6 weeks old), an ethanol solution containing a test substance (1 wt. %) was applied. One (1) MED of UV-B was irradiated thereto using a health lamp SL20-SLE (Toshiba). Irradiation was repeated five times per week over sixteen weeks. Wrinkle formation was visually scored using the following five rankings.
1: Mild and questionable wrinkles are observed
2: Mild but clear and definite wrinkles are observed
3: Moderate wrinkles are observed
4: Severe wrinkles are observed
Using the above rankings, wrinkle formations were scored and the inhibition ratios were determined by the division by the blank score.

Turning to `CCCCN(CC(O)COC)c1ccc(C)c(C)c1` (stereo not drawn) [Compound (32), N-n-butyl-N-(2-hydroxy-3-methoxypropyl)-3,4-xylidine], the results for the inhibition in vivo at 1 % (in experiment [1]; with skin of ICR/HR mice) were 61% and 43%, respectively. Also, the ΔΔL value in experiment [2] was found to be 1.3.

For the compound `CCCCCCCCN(CC(O)CO)c1ccc(OC)cc1` (stereo not drawn) [Compound (35), N-(2,3-dihydroxypropyl)-N-octyl-p-anisidine], the inhibition in vivo at 1 % in experiment [1] amounted to 81%; with skin of ICR/HR mice, 42%. Moreover, in experiment [2], the ΔΔL value was found to be 1.9.

Take `Cc1ccc(N(C)CC(O)CO)cc1` (stereo not drawn) [Compound (33), N-(2,3-dihydroxypropyl)-N-methyl-p-toluidine]: the values for the inhibition in vivo at 1 % (in experiment [1]; in the experiment with skin of ICR/HR mice) were 54% and 35%, respectively. This compound also came in with a ΔΔL value in experiment [2] of 1.1.

Take `CCCCN(CC(O)COC)c1ccccc1` (stereo not drawn) [Compound (6), N-n-butyl-N-(2-hydroxy-3-methoxypropyl)aniline]: the inhibition in vivo at 1 % in experiment [1] was found to be 46%; in the experiment with skin of ICR/HR mice it was 36%. This compound also returned a ΔΔL value in experiment [2] of 1.1.

`CCCCN(CC(O)CO)c1ccc(C)c(C)c1` (stereo not drawn) [Compound (34), N-n-butyl-N-(2,3-dihydroxypropyl)-3,4-xylidine]: the figures for the inhibition in vivo at 1 % (in experiment [1]; in the experiment on skin of ICR/HR mice) were 64% and 43%, respectively. Also, the ΔΔL value in experiment [2] amounted to 1.3.

Regarding `CCCCN(CC(O)COC)c1ccc(OC)cc1` (stereo not drawn) [Compound (2), N-n-butyl-N-(2-hydroxy-3-methoxypropyl)-p-anisidine], the inhibition in vivo at 1 % in experiment [1] amounted to 53%; in the experiment on skin of ICR/HR mice, 38%. The compound also registered a ΔΔL value in experiment [2] of 1.1.

In the case of `COCC(O)CN(CC(O)COC)c1ccc(C)cc1` (stereo not drawn) [Compound (4), N,N-bis(2-hydroxy-3-methoxypropyl)-p-toluidine], the inhibition in vivo at 1 % worked out at 81% in experiment [1] and 51% in the experiment with skin of ICR/HR mice. The compound further gave a ΔΔL value in experiment [2] of 1.8.

As for `CCCCCCCCN(CC(O)COC)c1ccc(OC)cc1` (stereo not drawn) [Compound (3), N-(2-hydroxy-3-methoxypropyl)-N-n-octyl-p-anisidine], the inhibition in vivo at 1 % in experiment [1] was determined as 86%; with skin of ICR/HR mice, 58%. In experiment [2], this compound registered a ΔΔL value of 2.0.

On to `CCCCN(CC(O)COC)c1ccc(C)cc1` (stereo not drawn) [Compound (5), N-n-butyl-N-(2-hydroxy-3-methoxypropyl)-p-toluidine], for which the inhibition in vivo at 1 % in experiment [1] turned out to be 65%; in the experiment with skin of ICR/HR mice, 43%. Further, the ΔΔL value in experiment [2] turned out to be 1.5.

As for `COCC(O)CN(C)c1ccc(OC)cc1` (stereo not drawn) [Compound (1), N-(2-hydroxy-3-methoxypropyl)-N-methyl-p-anisidine], the results for the inhibition in vivo at 1 % (in experiment [1]; in the experiment with skin of ICR/HR mice) were 79% and 47%, respectively. This compound also displayed a ΔΔL value in experiment [2] of 1.7.
